The text below walks through data of patent US20230257374A1, “NOVEL KRAS G12C PROTEIN INHIBITOR, PREPARATION METHOD THEREFOR, AND USE THEREOF” (INNOVENT BIOLOGICS (SUZHOU) CO., LTD., priority 2019, published 2023).

Where only a bound is given, the exact number is not on record here.

For one series, the target named is T1, KRAS G12C protein (Homo sapiens, UniProt P01116, G12C).
T1 construct: H358 cells (ATCC, CRL-5807) expressing KRAS G12C protein; host or cells: H358 (NCI-H358) cells
The series is described as follows: ERK protein phosphorylation assay (p-ERK) in H358 cells. In kind it is cell-based. Set-up: scale not given here. The conditions noted are these: H358 cells expressing KRAS G12C protein, 3 h incubation with compound; read-out: IC50, inhibiting phosphorylation of KRAS G12C protein-mediated downstream signaling (p-ERK). Put shortly:
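After paraformaldehyde fixation and methanol permeabilization, phospho-ERK detected by immunofluorescence read on an Odyssey CLx imager.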

Series [1] deals with H1373 cell line (K-RAS G12C). The series is described as follows: cells. In kind it is cell-based. Particulars: for IC50: Homo sapiens, NCI-H1373, 96 h, 3D culture, CellTiter-Glo 3D, read on day 4, read-out: H1373 (K-RAS G12C) IC50; for Selectivity (fold number of mutant vs. wild type): PC-9 IC50 vs. H1373 IC50. The method, then: (§1) a) On day 1, seed cells were placed in T75 a flask. b) On day 3, the medium was taken out and washed once with DPBS. c) Cells were trypsinized with 2 mL TrypLE™ Express enzyme at room temperature (RT) or 37° C. until cells detached. d) 5 mL of fresh medium was added to suspend the cells, and then the suspension was centrifuged at 1000 rpm and room temperature for 5 min. e) The supernatant was discarded, and the cells were resuspended in 5 mL of fresh medium and counted using Countess™ H. f) The cells were seeded back into the T75 flask for further culture or placed into an assay plate for 3D cell proliferation assay.
(§2) The cells were seeded at a density of 600 cells/well in a 384-well plate with 40 μL of medium per well and a final DMSO concentration of 0.5%. b) On day 4, a 3D CTG reagent was added to each well, followed by shaking at room temperature for 1 h. c) The signals were recorded using Envision.
(§3) a) Robustness was examined using 0.5% DMSO and data of blank control medium: H=mean (DMSO); L=mean (medium); SD (H)=STDEV (DMSO); SD (L)=STDEV (medium);
(§4) Y=peak valley value+(peak top value−peak valley value)/(1+10^((Log IC50−X)×HillSlope));
(§5) X: logarithm of compound concentration; Y: percent inhibition (% inhibition); Peak top and peak valley values: the plateau period units are the same as Y; log IC50: the same logarithmic unit as X; HillSlope: slope coefficient or Hill slope.
A general note: Cellular ATP, detected with luciferase, serves as a proxy for viable cell number.

Series [2] has as its system MIA PaCa-2 cell line (K-RAS G12C). The series is described as follows: cells. Particulars: for IC50: Homo sapiens, MIA PaCa-2, 96 h, 3D culture, CellTiter-Glo 3D, read on day 4, read-out: MIA PaCa-2 (K-RAS G12C) IC50; for Selectivity (fold number of mutant vs. wild type): PC-9 IC50 vs. MIA PaCa-2 IC50. In kind it is cell-based. The method, then: as §1, §2, §3, §4, §5

The subject of series [3] is PC-9 cell line (K-RAS wild type). The series is described as follows: cells. Type of series: cell-based. Particulars: Homo sapiens, PC-9, 96 h; 3D culture, CellTiter-Glo 3D, read on day 4. The method, then:
as §1, §2, §3, §4, §5

In series [4] the test system is H358 cell line (K-RAS G12C). The series is described as follows: cells. Type of series: cell-based, human. The conditions noted are these: for IC50: Homo sapiens, NCI-H358, 96 h, 3D culture, CellTiter-Glo 3D, read on day 4, read-out: H358 (K-RAS G12C) IC50; for Selectivity (fold number of mutant vs. wild type): PC-9 IC50 vs. H358 IC50. The procedure: as §1, §2, §3, §4, §5

Another series is described as follows: in vitro. The conditions noted are these: microsomes, pH 7.4.
Series [5] in a line: Stability test in human plasma. Particulars: for Remaining percentage (%) 0 min / Remaining percentage (%) 30 min / Remaining percentage (%) 60 min / Remaining percentage (%) 120 min / Remaining percentage (%) 180 min / Remaining percentage (%) 240 min: human plasma, 37° C.; for half-life at 5 μM: human, plasma.
Experimental: To examine the stability of the test compounds in plasma, representative compounds were selected for evaluation.
Preparation of stock solution: a test compound was dissolved in DMSO to prepare a 1 mM stock solution for later use; Propantheline Bromide was dissolved in acetonitrile to prepare a 1 mM stock solution as a positive control for later use.
To each well was added 2 μL of the stock solution of the test compound and the stock solution of the positive control such that the final concentrations were 5 KM and the concentration of the organic solvent was 0.5%. Each compound was prepared in duplicate, followed by incubation at 37° C. 50 μL of samples were taken from the reaction samples in equal amounts at 0, 30, 60, 120, 180 and 240 minutes, and 450 μL of cold acetonitrile containing an internal standard was added to terminate the reaction. […] 100 μL of the supernatants were transferred to a new plate, dilute with ultra-pure water, and analyzed by LC-MS/MS.
Data results were calculated according to peak area ratios.
The percentage of remaining compound for each time point was calculated as follows:
Remaining percentagemin(%)=peak area ratiosmin/peak area ratiomin×100%
where peak area ratios represents the peak area ratio of the test compound to the internal standard compound at t min; peak area ratiomin represents the peak area ratio of the test compound to the internal standard compound at 0 min (initial).

T1 sequence (P01116 1-188 isoform P01116-2 G12C): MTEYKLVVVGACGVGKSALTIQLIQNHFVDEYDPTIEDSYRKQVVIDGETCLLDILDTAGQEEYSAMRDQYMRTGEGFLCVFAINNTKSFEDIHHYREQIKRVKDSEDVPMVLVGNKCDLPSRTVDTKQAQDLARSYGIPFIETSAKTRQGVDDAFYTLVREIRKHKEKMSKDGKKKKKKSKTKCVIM

One may read the IC50 as the midpoint of a concentration-inhibition curve. For orientation: half-life means the time in which the quantity being followed falls by half. A word on the microsomal CLint: it is the capacity of the preparation to metabolise the compound, expressed as a volume cleared per time. Regarding `[2H]C([2H])([2H])c1cccc2cccc(N3CCc4c(nc(OC[C@@H]5CCCN5C)nc4N4CCN(C(=O)C=C)[C@@H](CC#N)C4)C3)c12` [Compound 1, 2-((S)-1-acryloyl-4-(7-(8-(methyl-d3)naphthalen-1-yl)-2-(((S)-1-methylpyrrolidin-2-yl)methoxy)-5,6,7,8-tetrahydropyrido[3,4-d]pyrimidin-4-yl)piperazin-2-yl)acetonitrile], at KRAS G12C protein, the IC50 was < 1000 nM. Moreover, in series [1], the IC50 is 0.68 nM and the “Selectivity (fold number of mutant vs. wild type)” value is 7074 fold. Besides, in series [2], the IC50 amounted to 0.49 nM and the “Selectivity (fold number of mutant vs. wild type)” value is on record as 9816 fold. The same molecule had an IC50 in series [3] of 4810 nM. In addition, in series [4], the IC50 was determined as 0.55 nM and the “Selectivity (fold number of mutant vs. wild type)” value turned out to be 8745 fold. In addition, in the series “in vitro” (ICR (CD-1), mouse), the half-life at 1 μM turned out to be 20.9 min and the microsomal CLint at 1 μM worked out at 66.5 µL/min/mg. In “in vitro” (human), this molecule showed a half-life at 1 μM of 29.3 min and a microsomal CLint at 1 μM of 47.3 µL/min/mg. In addition, in series [5], the “Remaining percentage (%) 0 min” value stood at 100.00%, the “Remaining percentage (%) 30 min” value worked out at 92.80%, the “Remaining percentage (%) 60 min” value came out at 76.27% and the “Remaining percentage (%) 120 min” value amounted to 58.94%. In addition, in series [5], the “Remaining percentage (%) 180 min” value is on record as 39.27%, the “Remaining percentage (%) 240 min” value came out at 25.75% and the half-life at 5 μM was 122 min.
On to `[2H]C([2H])([2H])N1CCC[C@H]1COc1nc2c(c(N3CCN(C(=O)C=C)[C@@H](CC#N)C3)n1)CCN(c1cccc3cccc(C)c13)C2` [Compound 42, 2-((S)-1-acryloyl-4-(7-(8-methylnaphthalen-1-yl)-2-(((S)-1-(methyl-d3)pyrrolidin-2-yl)methoxy)-5,6,7,8-tetrahydropyrido[3,4-d]pyrimidin-4-yl)piperazin-2-yl)acetonitrile], for which the IC50 on KRAS G12C protein was < 1000 nM. Also, in series [1], the IC50 was found to be 0.26 nM and the “Selectivity (fold number of mutant vs. wild type)” value stood at 9115 fold. In series [2], the IC50 stood at 0.51 nM and the “Selectivity (fold number of mutant vs. wild type)” value came out at 4647 fold. Half-maximal inhibition in series [3] (IC50) was put at 2370 nM. Besides, in series [4], the IC50 amounted to 0.62 nM and the “Selectivity (fold number of mutant vs. wild type)” value was 3823 fold. Also, in the series “in vitro” (ICR (CD-1), mouse), the half-life at 1 μM came out at 22.8 min and the microsomal CLint at 1 μM is 60.9 µL/min/mg. In addition, in “in vitro” (human), the half-life at 1 μM is 27.2 min and the microsomal CLint at 1 μM came to 51 µL/min/mg. Also, in series [5], the “Remaining percentage (%) 0 min” value is on record as 100.00%, the “Remaining percentage (%) 30 min” value worked out at 90.36%, the “Remaining percentage (%) 60 min” value is reported as 77.31% and the “Remaining percentage (%) 120 min” value came out at 57.19%. Further, in series [5], the “Remaining percentage (%) 180 min” value turned out to be 36.19%, the “Remaining percentage (%) 240 min” value is listed as 27.49% and the half-life at 5 μM worked out at 123 min.
